Reference: ChEMBL document CHEMBL5316331, “Modulating Cytotoxicity with Lego-like Chemistry: Upgrading Mitochondriotropic Antioxidants with Prototypical Cationic Carrier Bricks” (J Med Chem, 2023)
Active and inactive are the calls of the source. No cut-off for these calls is given here.

Tests used:
[1] = Cytotoxicity against human HepG2 cells assessed as cell viability incubated for 24 hrs; format: toxicity, cell-based; conditions: read-out: Activity
[2] = Drug uptake in C57BL/6J mouse liver mitochondria at 5 uM in presence of rotenone by UPLC analysis; format: ADME
[3] = Drug uptake in C57BL/6J mouse liver mitochondria at 5 uM in presence of FCCP by UPLC analysis; format: ADME
[4] = Cytotoxicity against human SH-SY5Y cells assessed as cell viability incubated for 24 hrs; format: toxicity, cell-based; conditions: read-out: Activity
SH-SY5Y [5] = test: Antioxidant activity against human SH-SY5Y cells assessed as effect on cellular OCR at 50 uM incubated for 24 hrs followed by addition of oligomycin/FCCP/antimycin A /rotenone by Cell Mito stress assay based seahorse XF96 flux analyzer; format: functional
SH-SY5Y [6] = test: Cytotoxicity against human SH-SY5Y cells assessed as increase in cell viability at 10 to 100 uM incubated for 24 hrs; format: toxicity, cell-based; conditions: dose 10-100 µM
SH-SY5Y [7] = test: Cytotoxicity against human SH-SY5Y cells at > 10 uM incubated for 48 hrs; format: toxicity, cell-based
SH-SY5Y [8] = test: Neuroprotective activity against H2O2-induced human SH-SY5Y cells assessed as increase in cell viability at 50 uM preincubated for 30 mins followed by H2O2 addition and measured after 24 hrs by SRB assay; format: functional, cell-based; conditions: time 24.5 hrs
SH-SY5Y [9] = test: Antioxidant activity against human SH-SY5Y cells assessed as effect on cellular OCR at 10 uM incubated for 24 hrs followed by addition of oligomycin/FCCP/antimycin A /rotenone by Cell Mito stress assay based seahorse XF96 flux analyzer; format: functional
[10] = Drug uptake in C57BL/6J mouse liver mitochondria at 5 uM in presence of succinate by UPLC analysis; format: ADME
SH-SY5Y [11] = test: Neuroprotective activity against H2O2-induced human SH-SY5Y cells assessed as increase in cell viability at 10 uM preincubated for 30 mins followed by H2O2 addition and measured after 24 hrs by SRB assay; format: functional, cell-based; conditions: time 24.5 hrs
HepG2 = test: Cytotoxicity against human HepG2 cells assessed as increase in cell viability at 10 to 100 uM incubated for 24 hrs; format: toxicity, cell-based; conditions: hepg2, 24 h, dose 10-100 µM
SH-SY5Y [12] = test: Effect on cell morphology in human SH-SY5Y cells assessed as reduction in cell body at 100 uM incubated for 24 hrs by Phase-contrast microscopy; format: functional, cell-based
SH-SY5Y [13] = test: Effect on cell morphology in human SH-SY5Y cells assessed as reduction in neurite at 100 uM incubated for 24 hrs by Phase-contrast microscopy; format: functional, cell-based
SH-SY5Y [14] = test: Effect on cell death pathway in human SH-SY5Y cells assessed as increase in late apoptotic cells at 50 uM incubated for 24 hrs by Annexin V-FITC/PI staining based microscopy; format: functional
SH-SY5Y [15] = test: Effect on cell death pathway in human SH-SY5Y cells assessed as increase in necrotic cells at 100 uM incubated for 24 hrs by Annexin V-FITC/PI staining based microscopy; format: functional
SH-SY5Y [16] = test: Effect on cell death pathway in human SH-SY5Y cells assessed as increase in early apoptotic cells at 100 uM incubated for 24 hrs by Annexin V-FITC/PI staining based microscopy; format: functional
SH-SY5Y [17] = test: Effect on cell death pathway in human SH-SY5Y cells assessed as increase in late apoptotic cells at 100 uM incubated for 24 hrs by Annexin V-FITC/PI staining based microscopy; format: functional
SH-SY5Y [18] = test: Effect on cell mitochondrial mass in human SH-SY5Y cells assessed as reduction on mitochondrial mass at 50 uM incubated for 24 hrs by mito-tracker green dye based flow cytometry; format: functional; parameters: scale not given: the % may be the effect or the level left
SH-SY5Y [19] = test: Effect on cell morphology in human SH-SY5Y cells assessed as reduction in neurite at 50 uM incubated for 24 hrs by Phase-contrast microscopy; format: functional, cell-based
SH-SY5Y [20] = test: Effect on cell morphology in human SH-SY5Y cells assessed as reduction in cell body at 50 uM incubated for 24 hrs by Phase-contrast microscopy; format: functional, cell-based
SH-SY5Y [21] = test: Effect on cell death pathway in human SH-SY5Y cells assessed as increase in necrotic cells at 50 uM incubated for 24 hrs by Annexin V-FITC/PI staining based microscopy; format: functional
SH-SY5Y [22] = test: Effect on cell death pathway in human SH-SY5Y cells assessed as increase in early apoptotic cells at 50 uM incubated for 24 hrs by Annexin V-FITC/PI staining based microscopy; format: functional

CS(=O)(=O)[O-].Cn1cc[n+](CCCCCCCCCCNC(=O)/C=C/c2ccc(O)c(O)c2)c1
viability at 24 h [1]: ≥ 85% | Drug uptake [2]: Not Active | Drug uptake [3]: Active | viability at 24 h [4]: ≥ 85% | Activity (SH-SY5Y [5]): inactive | Activity (SH-SY5Y [6]): Non-Toxic | Activity (SH-SY5Y [7]): Toxic | Activity (SH-SY5Y [8]): inactive | Activity (SH-SY5Y [9]): inactive | Drug uptake [10]: ~ 25% | Activity (SH-SY5Y [11]): inactive | Activity (HepG2): Non-Toxic

N#CC(C#N)=NNc1cccc(Cl)c1 [CARBONYL CYANIDE M-CHLOROPHENYLHYDRAZONE]
Activity (SH-SY5Y [12]): Active | Activity (SH-SY5Y [13]): Active | Activity (SH-SY5Y [14]): Active | Activity (SH-SY5Y [15]): Active | Activity (SH-SY5Y [16]): Active | Activity (SH-SY5Y [17]): Active | Activity (SH-SY5Y [18]): 77.4% | Activity (SH-SY5Y [19]): Active | Activity (SH-SY5Y [20]): Active | Activity (SH-SY5Y [21]): Active | Activity (SH-SY5Y [22]): Active
